Values joined by “and” are separate entries in the source; they are usually repeats but may differ in a detail not shown here. Equal entries are not always repeated. Inconclusive results and toxic doses are left out.
System: L1210 leukemia ip in BDF1 mice, survival T/C
Assay: NCI In Vivo Anticancer Drug Screen. Data for tumor model L1210 Leukemia (intraperitoneal) in B6D2F1 (BDF1) mice
Settings: endpoint: mean survival time, higher = longer survival
Outline: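 Transplantable tumor model; survival measured in treated vs vehicle control mice. Value = treated/control.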

[1] = dose: 100.0 mg/kg/injection, schedule: Q01DX001 (ip), vehicle: Klucel (hydroxypropylcellulose) (HPC)
[2] = dose: 100.0 mg/kg/injection, schedule: Q01DX009 (ip), vehicle: Klucel (hydroxypropylcellulose) (HPC)
[3] = dose: 200.0 mg/kg/injection, schedule: Q01DX001 (ip), vehicle: Klucel (hydroxypropylcellulose) (HPC)
[4] = dose: 200.0 mg/kg/injection, schedule: Q01DX009 (ip), vehicle: Klucel (hydroxypropylcellulose) (HPC)
[5] = dose: 400.0 mg/kg/injection, schedule: Q01DX001 (ip), vehicle: Klucel (hydroxypropylcellulose) (HPC)
[6] = dose: 400.0 mg/kg/injection, schedule: Q01DX009 (ip), vehicle: Klucel (hydroxypropylcellulose) (HPC)
[7] = dose: 100.0 mg/kg/injection, schedule: Q01DX009 (ip), vehicle: saline with Tween-80
[8] = dose: 100.0 mg/kg/injection, schedule: Q04DX002 (ip), vehicle: saline with Tween-80
[9] = dose: 100.0 mg/kg/injection, schedule: Q04DX003 (ip), vehicle: saline with Tween-80
[10] = dose: 200.0 mg/kg/injection, schedule: Q04DX002 (ip), vehicle: saline with Tween-80
[11] = dose: 200.0 mg/kg/injection, schedule: Q04DX003 (ip), vehicle: saline with Tween-80
[12] = dose: 400.0 mg/kg/injection, schedule: Q04DX002 (ip), vehicle: saline with Tween-80
[13] = dose: 400.0 mg/kg/injection, schedule: Q04DX003 (ip), vehicle: saline with Tween-80
[14] = dose: 100.0 mg/kg/injection, schedule: Q01DX001 (ip), vehicle: saline
[15] = dose: 200.0 mg/kg/injection, schedule: Q01DX001 (ip), vehicle: saline
[16] = dose: 400.0 mg/kg/injection, schedule: Q01DX001 (ip), vehicle: saline
[17] = dose: 100.0 mg/kg/injection, schedule: Q04DX003 (ip), vehicle: Klucel (hydroxypropylcellulose) (HPC)
[18] = dose: 200.0 mg/kg/injection, schedule: Q04DX003 (ip), vehicle: Klucel (hydroxypropylcellulose) (HPC)
[19] = dose: 50.0 mg/kg/injection, schedule: Q01DX001 (ip), vehicle: saline

## O=C(OC1CC2CC1C1C=CCC21)c1ccc([N+](=O)[O-])cc1 (stereo unspecified)
dose: 44.0 mg/kg/injection, schedule: Q01DX001 (ip), vehicle: carboxymethylcellulose (CMC)
  T/C: 94 % of control and 97 % of control
dose: 50.0 mg/kg/injection, schedule: Q01DX001 (ip), vehicle: carboxymethylcellulose (CMC)
  T/C: 102 % of control
dose: 67.0 mg/kg/injection, schedule: Q01DX001 (ip), vehicle: carboxymethylcellulose (CMC)
  T/C: 94 % of control and 100 % of control
[1]
  T/C: 104 % of control
dose: 100.0 mg/kg/injection, schedule: Q01DX001 (ip), vehicle: carboxymethylcellulose (CMC)
  T/C: 94 % of control and 100 % of control
[2]
  T/C: 101 % of control
dose: 150.0 mg/kg/injection, schedule: Q01DX001 (ip), vehicle: carboxymethylcellulose (CMC)
  T/C: 86 % of control and 91 % of control
[3]
  T/C: 93 % of control
dose: 200.0 mg/kg/injection, schedule: Q01DX001 (ip), vehicle: carboxymethylcellulose (CMC)
  T/C: 90 % of control
[4]
  T/C: 104 % of control
[5]
  T/C: 104 % of control
dose: 400.0 mg/kg/injection, schedule: Q01DX001 (ip), vehicle: carboxymethylcellulose (CMC)
  T/C: 96 % of control
[6]
  T/C: 101 % of control

## CC1(C)OCC(CO)(Nc2nc(N3CC3)nc(N3CC3)n2)CO1
dose: 0.31 mg/kg/injection, schedule: Q01DX009 (ip), vehicle: saline
  T/C: 105 % of control
dose: 0.62 mg/kg/injection, schedule: Q01DX009 (ip), vehicle: saline
  T/C: 111 % of control
dose: 2.5 mg/kg/injection, schedule: Q01DX009 (ip), vehicle: saline
  T/C: 152 % of control and 168 % of control
dose: 7.5 mg/kg/injection, schedule: Q01DX009 (ip), vehicle: saline
  T/C: 101 % of control

## c1n[nH]c2c1CCCC2
dose: 100.0 mg/kg/injection, schedule: Q01DX001 (ip), vehicle: saline with Tween-80
  T/C: 89 % of control
[7]
  T/C: 98 % of control
[8]
  T/C: 97 % of control and 91 % of control
[9]
  T/C: 96 % of control and 104 % of control
dose: 200.0 mg/kg/injection, schedule: Q01DX001 (ip), vehicle: saline with Tween-80
  T/C: 86 % of control
dose: 200.0 mg/kg/injection, schedule: Q01DX009 (ip), vehicle: saline with Tween-80
  T/C: 98 % of control
[10]
  T/C: 94 % of control and 92 % of control
[11]
  T/C: 98 % of control and 108 % of control
[12]
  T/C: 94 % of control
[13]
  T/C: 100 % of control and 92 % of control

## COC(=O)C12CCC1(Cl)CC2 (stereo unspecified)
[14]
  T/C: 94 % of control
[15]
  T/C: 95 % of control
[16]
  T/C: 100 % of control

## O=C(Nc1ccc(Cl)cc1)Oc1ccc(Br)cc1Br
[2]
  T/C: 100 % of control
[4]
  T/C: 96 % of control
[6]
  T/C: 104 % of control

## CCCCCCCCCCCCn1cnc2ncnc(Cl)c21
dose: 12.5 mg/kg/injection, schedule: Q01DX005 (ip), vehicle: other
  T/C: 102 % of control
dose: 25.0 mg/kg/injection, schedule: Q01DX005 (ip), vehicle: other
  T/C: 98 % of control
dose: 50.0 mg/kg/injection, schedule: Q01DX005 (ip), vehicle: other
  T/C: 98 % of control
dose: 100.0 mg/kg/injection, schedule: Q01DX005 (ip), vehicle: other
  T/C: 96 % of control

## O=C(Nc1ccc(Cl)c(Cl)c1)NC(CO)(CO)CO
[14]
  T/C: 100 % of control
[15]
  T/C: 94 % of control
[16]
  T/C: 94 % of control

## C=C[CH2][Sn]([Br])([c]1ccccc1)[c]1ccccc1
dose: 1.56 mg/kg/injection, schedule: Q01DX009 (ip), vehicle: saline with Tween-80
  T/C: 89 % of control
dose: 3.13 mg/kg/injection, schedule: Q01DX009 (ip), vehicle: saline with Tween-80
  T/C: 92 % of control

## NC(=S)N/N=C/c1cc(-c2cccc(N)c2)ccn1
dose: 6.25 mg/kg/injection, schedule: Q01DX009 (ip), vehicle: saline with Tween-80
  T/C: 112 % of control
dose: 12.5 mg/kg/injection, schedule: Q01DX009 (ip), vehicle: saline with Tween-80
  T/C: 114 % of control
dose: 25.0 mg/kg/injection, schedule: Q01DX009 (ip), vehicle: saline with Tween-80
  T/C: 114 % of control
dose: 50.0 mg/kg/injection, schedule: Q01DX009 (ip), vehicle: saline with Tween-80
  T/C: 111 % of control
[7]
  T/C: 114 % of control

## CC(=O)/C=C/c1c[nH]c(=O)[nH]c1=O
[8]
  T/C: 104 % of control
[10]
  T/C: 104 % of control
[12]
  T/C: 93 % of control

## CC(C)C[n+]1cc([O-])on1
dose: 6.25 mg/kg/injection, schedule: Q01DX009 (ip), vehicle: Klucel (hydroxypropylcellulose) (HPC)
  T/C: 97 % of control
dose: 12.5 mg/kg/injection, schedule: Q01DX009 (ip), vehicle: Klucel (hydroxypropylcellulose) (HPC)
  T/C: 100 % of control

## Cc1c(CO)[nH]c(=S)[nH]c1=O
dose: 50.0 mg/kg/injection, schedule: Q01DX001 (ip), vehicle: Klucel (hydroxypropylcellulose) (HPC)
  T/C: 103 % of control
dose: 50.0 mg/kg/injection, schedule: Q04DX003 (ip), vehicle: Klucel (hydroxypropylcellulose) (HPC)
  T/C: 100 % of control
[1]
  T/C: 95 % of control
[17]
  T/C: 92 % of control
[3]
  T/C: 97 % of control
[18]
  T/C: 89 % of control

## COc1ccc2c(c1OC)CCN1C3=C(CC(OC(=O)c4ccccc4)CC3)C(=O)CC21 (stereo unspecified)
[1]
  T/C: 96 % of control
dose: 100.0 mg/kg/injection, schedule: Q01DX009 (ip), vehicle: saline sonified
  T/C: 93 % of control
[3]
  T/C: 94 % of control
dose: 200.0 mg/kg/injection, schedule: Q01DX009 (ip), vehicle: saline sonified
  T/C: 95 % of control
[5]
  T/C: 97 % of control
dose: 400.0 mg/kg/injection, schedule: Q01DX009 (ip), vehicle: saline sonified
  T/C: 93 % of control

## O=C(O)CCCCSCCSCCCCC(=O)O
[2]
  T/C: 101 % of control
[4]
  T/C: 94 % of control
[6]
  T/C: 86 % of control

## CCCCCCC1(C)CCC(=O)O1 (stereo unspecified)
[14]
  T/C: 94 % of control
[15]
  T/C: 94 % of control
[16]
  T/C: 100 % of control

## O=C(O)c1cc([N+](=O)[O-])cc(P(=O)(O)O)c1
dose: 12.5 mg/kg/injection, schedule: Q01DX001 (ip), vehicle: saline
  T/C: 86 % of control
dose: 12.5 mg/kg/injection, schedule: Q04DX003 (ip), vehicle: saline
  T/C: 96 % of control
dose: 25.0 mg/kg/injection, schedule: Q01DX001 (ip), vehicle: saline
  T/C: 99 % of control
dose: 25.0 mg/kg/injection, schedule: Q04DX003 (ip), vehicle: saline
  T/C: 89 % of control
[19]
  T/C: 87 % of control
dose: 50.0 mg/kg/injection, schedule: Q04DX003 (ip), vehicle: saline
  T/C: 94 % of control
dose: 75.0 mg/kg/injection, schedule: Q01DX009 (ip), vehicle: saline
  T/C: 100 % of control
dose: 115.0 mg/kg/injection, schedule: Q01DX009 (ip), vehicle: saline
  T/C: 92 % of control

## Cc1cc(C(=O)O)c(C)cc1C(=O)O
[9]
  T/C: 98 % of control
[11]
  T/C: 93 % of control
[13]
  T/C: 98 % of control

## CC(=O)Nc1ccc(/C=N\NC(=O)CCCC(=O)N/N=C/c2ccc(NC(C)=O)cc2)cc1
[19]
  T/C: 104 % of control
[14]
  T/C: 96 % of control
dose: 100.0 mg/kg/injection, schedule: Q01DX009 (ip), vehicle: saline
  T/C: 91 % of control
[15]
  T/C: 92 % of control
[16]
  T/C: 98 % of control
dose: 400.0 mg/kg/injection, schedule: Q01DX009 (ip), vehicle: saline
  T/C: 88 % of control

## O=C(Cl)c1cc(Cl)nc2c(Cl)cc(Cl)cc12
dose: 75.0 mg/kg/injection, schedule: Q01DX001 (ip), vehicle: saline
  T/C: 86 % of control
dose: 150.0 mg/kg/injection, schedule: Q01DX001 (ip), vehicle: saline
  T/C: 94 % of control
dose: 300.0 mg/kg/injection, schedule: Q01DX001 (ip), vehicle: saline
  T/C: 90 % of control

## CCOc1ccc(NC(=O)c2cccc(C(=O)Nc3ccc(OCC)cc3)c2)cc1
[2]
  T/C: 104 % of control
[17]
  T/C: 91 % of control
[4]
  T/C: 101 % of control
[18]
  T/C: 98 % of control
[6]
  T/C: 95 % of control
dose: 400.0 mg/kg/injection, schedule: Q04DX003 (ip), vehicle: Klucel (hydroxypropylcellulose) (HPC)
  T/C: 93 % of control
